Source: publication PMC12535377, “Synaptic and intrinsic plasticity mediated by CCK-type signaling coordinates behavioral changes during motivational state shifts” (Cell reports, 2025)
Read-outs that look alike come from different tables or passages of the source. Non-standard residues stand in square brackets, D forms with d. Residues, ends and D or L forms follow the SMILES beside them. sY = N[C@@H](Cc1ccc(OS(=O)(=O)O)cc1)C(=O)O

Experiments:
[1] = target: T1, apCCKR2 (Aplysia californica, UniProt A0ABM0ZX06); assay: IP1 accumulation assay, apCCKR2 in CHO-K1 cells; type: cell-based; conditions: CHO-K1 cells transfected with receptor and promiscuous Gαq
T1 sequence (A0ABM0ZX06 1-377): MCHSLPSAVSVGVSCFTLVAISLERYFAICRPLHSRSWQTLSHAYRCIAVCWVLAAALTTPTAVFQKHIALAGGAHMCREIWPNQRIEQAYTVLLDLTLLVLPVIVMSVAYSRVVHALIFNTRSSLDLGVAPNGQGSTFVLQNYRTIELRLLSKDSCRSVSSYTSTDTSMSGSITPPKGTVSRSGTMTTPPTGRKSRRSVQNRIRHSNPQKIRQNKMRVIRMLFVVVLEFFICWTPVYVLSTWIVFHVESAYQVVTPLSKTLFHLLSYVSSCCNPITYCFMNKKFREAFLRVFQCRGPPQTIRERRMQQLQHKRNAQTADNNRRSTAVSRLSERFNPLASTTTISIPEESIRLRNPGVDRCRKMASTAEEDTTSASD
Protocol: We tested receptor activation using the IP1 (inositol monophosphate) accumulation assay that measures IP1 generated in the Gαq pathway (see STAR Methods).
CHO-K1 cells were cultured in F-12K medium (Gibco, 21127–022) with 10% fetal bovine serum at 37°C in 5% CO2. Before transfection, cells were grown in 35 mm diameter tissue culture-treated dishes to 85% confluence. For transfection, 1.5 μg apCCKR plasmids or control plasmids (in pcDNA3.1(+) vector) and 1.5 μg promiscuous Gαq-family protein (in pcDNA3.1(+) vector) were mixed with 200 μL Opti-MEM (Gibco, 11058021), and 8 μL Turbofect (Thermo Fisher Scientific, R0531). This promiscuous Gαq protein contains substitutions to increase promiscuity,[148] and could bind to most GPCRs, ensuring an IP1 response when a potential ligand binds to its specific GPCR, irrespective of the GPCR’s normal association with any specific Gα proteins. The DNA mixture was incubated at room temperature for 15 min and then added dropwise to the cells in F-12K medium with 10% FBS (no antibiotics), followed by incubation at 37°C in 5% CO2 overnight. The next day, cells were detached using trypsin and reseeded in white 96-well half-area tissue culture-treated plates (Corning, 3688) at a density of 20,000 cells per well in F-12K and 10% FBS, and incubated at 37°C in 5% CO2 overnight. Activation of putative apCCK or related receptor was detected by monitoring IP1 accumulation using IPOne Detection Kit (Cisbio, 62IPAPEB), as previously described.[64],[65],[141],[149],[150]
Dose-response curves and bar graphs for experimental data were plotted using Prism software (GraphPad version 8). Data are presented as mean ± SEM of at least three independent experiments, except that LogEC50 values reported in the main text are the mean ± standard deviation (SD) from at least three independent experiments. Statistical tests were performed using Prism software. They included Student’s t-test, one-way or two-way ANOVA, as appropriate. […] Electrophysiological recordings were digitized online using AxoScope software version 10.7 (Molecular Devices, LLC, Sunnyvale, CA) and were plotted by CorelDraw version 2018 (Corel Corp., Ottawa, Canada).

[2] = system: CBI-2-elicited feeding motor programs; assay: CBI-2-elicited feeding motor programs in isolated cerebral and buccal ganglia; parameters: species or system Aplysia californica; conditions: for Feeding program effect, summary grade: Table S1 summary in words; for Protraction duration of CBI-2 programs: 10^-6 M and 10^-5 M tested; for B8 activity (frequency) during retraction: CBI-2 programs, 10^-6 M and 10^-5 M
Protocol: To explore the neural basis of the behavioral effects of apCCKs, we examined their modulation of feeding-motor programs in isolated ganglia. All eight forms of apCCKs were tested on programs induced by CBI-2, a command-like interneuron that is active during food-elicited feeding behavior[56] and provides potent excitatory inputs to buccal central pattern generator (CPG) interneurons,[54],[77] orchestrating ingestive motor programs (Figure S23A). Stable single-cycle motor programs were evoked by stimulating CBI-2 at 8–10 Hz throughout the protraction phase with a 90-s intertrial interval. Two concentrations, 10^−6 M and 10^−5 M, of apCCKs were tested.
Intracellular and extracellular recordings were made as described previously.[57]–[59],[61],[151] To prevent movements of ganglia caused by myoactive apCCK (especially [sY8]-apCCK1 and [sY6, sY8]-apCCK1) during bath application, we treated the ganglia with 0.8% protease IX for 1–2 min prior to desheathing. Subsequently, ganglia were desheathed, transferred to a recording chamber containing ~1.5 mL of ASW (460 mM NaCl, 10 mM KCl, 11mM CaCl2, 55 mM MgCl2, and 10 mM HEPES, pH 7.6), continuously perfused at 0.3 mL/min, and maintained at 14°C–17°C. The experiments examining the effects of apCCKs on excitability of B20/B34/B61/62/B65/B64 neurons were performed in a high divalent saline (368 mM NaCl, 8 mM KCl, 13.8 mM CaCl2, 115 mM MgCl2, and 10 mM HEPES, pH 7.6), which increases the spiking threshold of neurons and therefore curtails polysynaptic influences. Intracellular recordings were obtained using 5–10 MΩ sharp microelectrodes filled with an electrolyte (0.6 M K2SO4 plus 60 mM KCl). Extracellular recordings were acquired from polyethylene suction electrodes. Grass S88 and WPI Pulsemaster A300 stimulators were used to provide timing signals for intracellular and extracellular stimulation. To determine the effects of various forms of apCCKs on Aplysia feeding programs, we performed experiments with the cerebral and buccal ganglia. Freshly made apCCK solution in ASW was perfused into the recording chamber. Feeding-motor programs were elicited by stimulation of command-like neuron CBI-2 at 8–10 Hz or stimulation of the EN at 2 Hz, 3 ms, 15 V, and were monitored by bursting activity of the I2 nerve of the buccal ganglion.[58],[59],[61] Typically, we recorded from motor neuron B8, and one interneuron, e.g., B40 or B20. To determine effects of apCCKs on synaptic strength, we stimulated presynaptic neuron, CBI-2, B34 (plus 1 nA current) or B65 at 10 Hz for 2 s for several trials and waited 1 min between each trial. The stimulation duration for each trial was set at 2 s because this allows the expression of synaptic facilitation without evoking too many spikes. Typically, the amplitude of the last EPSP at each concentration of peptides was quantified unless otherwise stated.

[3] = average of at least three independent experiments, read-out: apCCKR2: EC50
[4] = log[EC50] with negative sign, mean ± SD, at least three independent experiments, SD, read-out: apCCKR2: log[EC50] (converted)

CC[C@H](C)[C@H](NC(=O)CNC(=O)[C@H](Cc1ccc(O)cc1)NC(=O)[C@H](CC(=O)O)NC(=O)CNC(=O)[C@H](Cc1ccc(OS(=O)(=O)O)cc1)NC(=O)[C@@H](N)CO)C(=O)NCC(=O)NCC(=O)NCC(=O)N[C@@H](CCCNC(=N)N)C(=O)N[C@@H](Cc1ccccc1)C(N)=O [[sY2]-apCCK2] (H-S[sY]GDYGIGGGRF-NH2)
EC50 [1, 3]: 1400 nM
EC50 [1, 4]: 1100 nM
Feeding program effect, summary grade [2]: No effect

CC[C@H](C)[C@H](NC(=O)CNC(=O)[C@H](Cc1ccc(OS(=O)(=O)O)cc1)NC(=O)[C@H](CC(=O)O)NC(=O)CNC(=O)[C@H](Cc1ccc(OS(=O)(=O)O)cc1)NC(=O)[C@@H](N)CO)C(=O)NCC(=O)NCC(=O)NCC(=O)N[C@@H](CCCNC(=N)N)C(=O)N[C@@H](Cc1ccccc1)C(N)=O [[sY2, sY5]-apCCK2] (H-S[sY]GD[sY]GIGGGRF-NH2)
EC50 [1, 4]: 355 nM
Protraction duration of CBI-2 programs [2]: shortened
B8 activity (frequency) during retraction [2]: reduced
Feeding program effect, summary grade [2]: Weak

CC[C@H](C)[C@H](NC(=O)CNC(=O)[C@H](Cc1ccc(OS(=O)(=O)O)cc1)NC(=O)[C@H](CC(=O)O)NC(=O)CNC(=O)[C@H](Cc1ccc(O)cc1)NC(=O)[C@@H](N)CO)C(=O)NCC(=O)NCC(=O)NCC(=O)N[C@@H](CCCNC(=N)N)C(=O)N[C@@H](Cc1ccccc1)C(N)=O [[sY5]-apCCK2] (H-SYGD[sY]GIGGGRF-NH2)
EC50 [1, 3]: 49 nM
EC50 [1, 4]: 38.9 nM
Protraction duration of CBI-2 programs [2]: shortened
B8 activity (frequency) during retraction [2]: reduced
Feeding program effect, summary grade [2]: Moderate

H-SYGDYGIGGGRF-NH2 [apCCK2]
EC50 [1, 3]: > 10000 nM
Feeding program effect, summary grade [2]: No effect
